Reference: patent US10130615B2, “Benzomorphan analogs and the use thereof” (priority 2014, dated 2018)
Where two headings read alike, the source gives them in different places.

Assays:
μ-opioid receptor [1] = molecular target: T1, μ-opioid receptor (Homo sapiens, UniProt P35372); experiment: cell-based; set-up: purchased Perkin Elmer, Shelton, Conn; conditions: U2OS cells; for EC50: read-out: β-Arr2 μ EC50; for Emax: read-out: β-Arr2 μ Emax
μ-opioid receptor [2] = molecular target: T1, μ-opioid receptor; experiment: μ-opioid receptor GTPγS functional assay, U2OS cells; conditions: for Emax: read-out: GTPγS μ Emax
μ-opioid receptor [3] = molecular target: T1, μ-opioid receptor; experiment: biochemical; set-up: purchased Perkin Elmer, Shelton, Conn; host or cells: HEK-293 or CHO; conditions: HEK-293 or CHO cells; for EC50: read-out: GTPγS μ EC50; for Emax: relative to DAMGO, read-out: GTPγS μ Emax
κ-opioid receptor = κ-opioid receptor (Homo sapiens, UniProt P41145); experiment: κ-opioid receptor GTPγS functional assay, U2OS cells; type: biochemical; set-up: expressed in transfected cells; host or cells: U-2 OS
Method: Plates were incubated for 30 min at a temperature of about 25° C. with shaking.

[4] = U2OS cells, read-out: GTPγS κ EC50

κ-opioid receptor, sequence (P41145 whole entry): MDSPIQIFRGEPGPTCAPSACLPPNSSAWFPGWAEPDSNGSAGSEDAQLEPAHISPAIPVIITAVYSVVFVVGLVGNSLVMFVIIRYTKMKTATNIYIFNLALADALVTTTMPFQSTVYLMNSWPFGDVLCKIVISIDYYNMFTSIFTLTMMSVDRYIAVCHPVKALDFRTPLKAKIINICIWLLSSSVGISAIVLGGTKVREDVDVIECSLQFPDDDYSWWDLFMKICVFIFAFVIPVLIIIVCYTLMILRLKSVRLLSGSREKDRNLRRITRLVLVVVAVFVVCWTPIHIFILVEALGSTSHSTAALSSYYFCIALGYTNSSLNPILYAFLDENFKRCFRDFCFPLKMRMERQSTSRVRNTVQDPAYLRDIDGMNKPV
T1 sequence (P35372 whole entry, species assumed): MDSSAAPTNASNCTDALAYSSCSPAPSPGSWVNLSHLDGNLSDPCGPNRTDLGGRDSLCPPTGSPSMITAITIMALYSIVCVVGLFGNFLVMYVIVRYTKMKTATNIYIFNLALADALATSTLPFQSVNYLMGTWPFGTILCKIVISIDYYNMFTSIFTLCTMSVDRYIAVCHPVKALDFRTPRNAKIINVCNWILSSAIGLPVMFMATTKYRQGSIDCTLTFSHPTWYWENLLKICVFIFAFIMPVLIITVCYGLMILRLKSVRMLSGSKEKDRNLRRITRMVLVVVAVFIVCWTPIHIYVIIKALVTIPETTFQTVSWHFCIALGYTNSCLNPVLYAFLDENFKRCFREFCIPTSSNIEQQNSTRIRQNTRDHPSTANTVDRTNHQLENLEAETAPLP

Structure (SMILES)	EC50 (μ-opioid receptor [1]) [nM]	Emax (μ-opioid receptor [1]) [%]	EC50 (μ-opioid receptor [2]) [nM]	Emax (μ-opioid receptor [2]) [%]	EC50 (μ-opioid receptor [3]) [nM]	Emax (μ-opioid receptor [3]) [%]	Emax (κ-opioid receptor; U2OS cells) [%]	EC50 (κ-opioid receptor; [4]) [nM]	EC50 (κ-opioid receptor) [nM]
C[C@H]1[C@H]2Cc3ccc(O)cc3[C@]1(CCN1CCN(C(c3ccc(F)cc3)c3ccc(F)cc3)CC1)CCN2C [Compound 8, (2R,6R,11R)-6-(2-(4-(bis(4-fluoro-phenyl)methyl)piperazin-1-yl)ethyl)-3,11-dimethyl-1,2,3,4,5,6-hexahydro-2,6-methanobenzo[d]azocin-8-ol]	4710 ± 227	70.7 ± 6.98	72.7 ± 4.92	100 ± 3.06	796 ± 72.2	47 ± 1.53			
C[C@H]1[C@H]2Cc3ccc(O)cc3C1(CCNS(=O)(=O)N(C)C)CCN2C [Compound 80]	1180 ± 822	2.62 ± 0.36			134 ± 3.21	27.9 ± 0.47			
C[C@H]1[C@H]2Cc3ccc(O)cc3[C@]1(CCNC(=O)NS(=O)(=O)c1ccc(F)cc1)CCN2C [Compound 66, 4-fluoro-N-((2-((2R,6R,11R)-8-hydroxy-3,11-dimethyl-2,3,4,5-tetrahydro-2,6-methanobenzo[d]azocin-6(1H)-yl)-ethyl)carbamoyl)benzenesul-fonamide]	2290 ± 703	15.9 ± 0.72			174 ± 13.1	37.3 ± 0.88			
C[C@H]1[C@H]2Cc3ccc(O)cc3[C@]1(CCNS(=O)(=O)C1CC1)CCN2CC1CC1 [Compound 6, N-(2-((2R,6S,11R)-3-(cyclopropyl-methyl)-8-hydroxy-11-methyl-2,3,4,5-tetrahydro-2,6-methanobenzo[d]azocin-6(1H)-yl)ethyl)-cyclopropanesulfonamide]		-0.33 ± 0.67	0.88 ± 0.095	30.7 ± 0.88		-0.33 ± 0.67	107 ± 2.65	0.072 ± 0.013	
COc1ccc2c(c1)[C@]1(CCNCCc3ccc(S(N)(=O)=O)cc3)CCN(C)[C@H](C2)[C@@H]1C [Compound 51, 4-(2-((2-((2R,6R,11R)-8-methoxy-3,11-dimethyl-2,3,4,5-tetrahydro-2,6-methanobenzo[d]azocin-6(1H)-yl)ethyl)-amino)ethyl)benzenesulfonamide]			6710 ± 257	76.7 ± 3.71			96.3 ± 0.67	6280 ± 318	
C[C@H]1[C@H]2Cc3ccc(O)cc3[C@]1(CCNC(=O)[C@@H]1CCC(=O)N1)CCN2C [Compound 72, (S)-N-(2-((2R,6R,11R)-8-hydroxy-3,11-dimethyl-2,3,4,5-tetrahydro-2,6-methano-benzo[d]azocin-6(1H)-yl)ethyl)-5-oxopyrrolidine-2-carboxamide]	267 ± 63.3	5.8 ± 0.42			241 ± 56.7	37.2 ± 1.8			
C[C@H]1[C@H]2Cc3ccc(O)cc3[C@]1(CCNC(=O)c1ccc(C(N)=O)cc1)CCN2C [Compound 86, N-(2-((2R,6R,11R)-8-hydroxy-3,11-dimethyl-2,3,4,5-tetrahydro-2,6-methanobenzo[d]azocin-6(1H)-yl)ethyl)terephthalamide]	289 ± 91.8	11.2 ± 0.69			252 ± 23.5	48.2 ± 1.26			
COc1ccc2c(c1)[C@]1(CCNCCCn3ccnc3)CCN(C)[C@H](C2)[C@@H]1C [Compound 55, 3-(1H-imidazol-1-yl)-N-(2-((2R,6R,11R)-8-methoxy-3,11-dimethyl-2,3,4,5-tetrahydro-2,6-methanobenzo[d]azocin-6(1H)-yl)ethyl)propan-1-amine]			14500 ± 653	82 ± 2.65			113 ± 1.45	14700 ± 1240	
C[C@H]1[C@H]2Cc3ccc(O)cc3[C@]1(CCNS(=O)(=O)c1ccc(F)cc1)CCN2C [Compound 69, 4-fluoro-N-(2-((2R,6S,11R)-8-hydroxy-3,11-dimethyl-2,3,4,5-tetrahydro-2,6-methanobenzo[d]azocin-6(1H)-yl)ethyl)-benzenesulfonamide]	2.97 ± 0.34	14.7 ± 0.88			5.42 ± 1.11	59.3 ± 1.2			
C[C@H]1[C@H]2Cc3ccc(O)cc3[C@]1(CCNC(=O)Nc1ccc(F)cc1)CCN2CC1CC1 [Compound 18, 1-(2-((2R,6R,11R)-3-(cyclopropyl-methyl)-8-hydroxy-11-methyl-2,3,4,5-tetrahydro-2,6-methanobenzo[d]azocin-6(1H)-yl)ethyl)-3-(4-fluorophenyl)urea]	0.31 ± 0.063	4.38 ± 0.35			0.12	22.4 ± 1.04			
COc1ccc2c(c1)[C@]1(CCO)CCN(C)[C@H](C2)[C@@H]1C [Compound 50, 2-((2R,6S,11R)-8-methoxy-3,11-dimethyl-2,3,4,5-tetrahydro-2,6-methano-benzo[d]azocin-6(1H)-yl)ethan-1-ol]			2390 ± 271	88.3 ± 7.62			103 ± 8.41		> 2320
C[C@H]1[C@H]2Cc3ccc(O)cc3[C@]1(CCNC(=O)Nc1ccccc1)CCN2C [Compound 68, 1-(2-((2R,6R,11R)-8-hydroxy-3,11-dimethyl-2,3,4,5-tetrahydro-2,6-methano-benzo[d]azocin-6(1H)-yl)ethyl)-3-phenylurea]	18.9 ± 1.23	72.3 ± 0.88			28.5 ± 2.07	75.8 ± 2.39			
C[C@H]1[C@H]2Cc3ccc(O)cc3[C@]1(CCN1CCC(N(C3CC3)S(=O)(=O)c3ccccc3)CC1)CCN2C [Compound 7, N-cyclopropyl-N-(1-(2-((2R,6R,11R)-8-hydroxy-3,11-dimethyl-2,3,4,5-tetrahydro-2,6-methanobenzo[d]azocin-6(1H)-yl)ethyl)piperidin-4-yl)benzene-sulfonamide]	503 ± 116	23.4 ± 1.33	83.1 ± 1.96	99 ± 1	624 ± 65.9	54.5 ± 4.33			
C[C@H]1[C@H]2Cc3ccc(O)cc3[C@]1(CCNC(=O)Nc1ccc(F)cc1)CCN2C [Compound 76, 1-(4-fluorophenyl)-3-(2-((2R,6R,11R)-8-hydroxy-3,11-dimethyl-2,3,4,5-tetrahydro-2,6-methanobenzo[d]azocin-6(1H)-yl)ethyl)urea]	28.4 ± 3.98	28.9 ± 1.69			28.8 ± 10.5	58.5 ± 2.78			
C[C@H]1[C@H]2Cc3ccc(O)cc3[C@]1(CCNC(=O)CCc1ccccc1)CCN2C [Compound 85, N-(2-((2R,6R,11R)-8-hydroxy-3,11-dimethyl-2,3,4,5-tetrahydro-2,6-methanobenzo[d]azocin-6(1H)-yl)ethyl)-3-phenylpropanamide]	6.55 ± 2.88	39.8 ± 0.77			6.51 ± 0.17	69.5 ± 2.23			
COc1ccc2c(c1)[C@@]1(CCO)CCN(C)[C@@H](C2)[C@H]1C [Compound 49, 2-((2S,6R,11S)-8-methoxy-3,11-dimethyl-2,3,4,5-tetrahydro-2,6-methanobenzo-[d]azocin-6(1H)-yl)ethan-1-ol]				21			41 ± 4.58		
C[C@H]1[C@H]2Cc3ccc(O)cc3[C@]1(CC(=O)NCCc1ccc(S(N)(=O)=O)cc1)CCN2C [Compound 62, 2-((2R,6S,11R)-8-hydroxy-3,11-dimethyl-2,3,4,5-tetrahydro-2,6-methanobenzo[d]azocin-6(1H)-yl)-N-(4-sulfamoylphenethyl)acetamide]		-1	172 ± 18.7	49.7 ± 0.88	538 ± 22.9	17 ± 1.53	35.7 ± 1.67	1120 ± 53.4	
C[C@H]1[C@H]2Cc3ccc(O)cc3[C@]1(CCNC(=O)c1ccc(F)cc1)CCN2C [Compound 83, 4-Fluoro-N-(2-((2R,6R,11R)-8-hydroxy-3,11-dimethyl-2,3,4,5-tetrahydro-2,6-methanobenzo[d]azocin-6(1H)-yl)ethyl)benzamide]	13.8 ± 3.03	46.5 ± 1.93			13.6 ± 3.38	77.2 ± 3.52			
C[C@H]1[C@H]2Cc3ccc(O)cc3[C@]1(CCNC(=O)Nc1cccc(F)c1)CCN2C [Compound 79, 1-(3-fluorophenyl)-3-(2-((2R,6R,11R)-8-hydroxy-3,11-dimethyl-2,3,4,5-tetrahydro-2,6-methanobenzo[d]azocin-6(1H)-yl)ethyl)urea]	39.1 ± 7.13	58.9 ± 7.55			19.7 ± 1.11	71.6 ± 5.96			
COc1ccc2c(c1)[C@]1(CCN3CCC[C@@H]3C(=O)O)CCN(C)[C@H](C2)[C@@H]1C [Compound 60, (2-((2R,6S,11R)-8-methoxy-3,11-dimethyl-2,3,4,5-tetrahydro-2,6-methanobenzo[d]azocin-6(1H)-yl)ethyl)-D-proline]			4910 ± 1080	49 ± 3.61			97.7 ± 8.09		
C[C@H]1[C@H]2Cc3ccc(O)cc3[C@]1(CCNC(=O)Nc1ccccc1F)CCN2C [Compound 78, 1-(2-fluorophenyl)-3-(2-((2R,6R,11R)-8-hydroxy-3,11-dimethyl-2,3,4,5-tetrahydro-2,6-methanobenzo[d]azocin-6(1H)-yl)ethyl)urea]	90.5 ± 15.4	67 ± 3.71			33.5 ± 4.9	71 ± 3.61			
C[C@H]1[C@H]2Cc3ccc(O)cc3[C@]1(CCNC(=O)NCc1ccccc1)CCN2CC1CC1 [Compound 21, 1-benzyl-3-(2-((2R,6R,11R)-3-(cyclopropylmethyl)-8-hydroxy-11-methyl-2,3,4,5-tetrahydro-2,6-methanobenzo[d]azocin-6(1H)-yl)ethyl)urea]	0.38 ± 0.11	30.1 ± 0.81			0.28 ± 0.027	54.7 ± 2.63			
